In patent publication US9670157B2, “Benzylamine derivatives” (KALVISTA PHARMACEUTICALS LIMITED, priority 2013, dated 2017):

Legend:
Human KLK1 = Human KLK1 (Homo sapiens (Human), UniProt P06870); assay: Determination of the IC50 for KLK1; format: biochemical; conditions: 37° C., fluorogenic substrate H-DVal-Leu-Arg-AFC
Protocol: KLK1 inhibitory activity in vitro was determined using standard published methods (see e.g. Johansen et al., Int. J. Tiss. Reac. 1986, 8, 185; Shori et al., Biochem. Pharmacol., 1992, 43, 1209; Stürzebecher et al., Biol. Chem. Hoppe-Seyler, 1992, 373, 1025). Human KLK1 (Callbiochem) was incubated at 37° C. with the fluorogenic substrate H-DVal-Leu-Arg-AFC and various concentrations of the test compound. Residual enzyme activity (initial rate of reaction) was determined by measuring the change in optical absorbance at 410 nm and the IC50 value for the test compound was determined.

Human plasma kallikrein = Human plasma kallikrein (Homo sapiens (Human), UniProt P03952); assay: Determination of the IC50 for Plasma Kallikrein; format: biochemical; conditions: 37° C., fluorogenic substrate H-DPro-Phe-Arg-AFC; read-out: IC50 (human PKal)
Protocol: Human plasma kallikrein (Protogen) was incubated at 37° C. with the fluorogenic substrate H-DPro-Phe-Arg-AFC and various concentrations of the test compound. Residual enzyme activity (initial rate of reaction) was determined by measuring the change in optical absorbance at 410 nm and the IC50 value for the test compound was determined.

Human plasma kallikrein, sequence (P03952 391-638): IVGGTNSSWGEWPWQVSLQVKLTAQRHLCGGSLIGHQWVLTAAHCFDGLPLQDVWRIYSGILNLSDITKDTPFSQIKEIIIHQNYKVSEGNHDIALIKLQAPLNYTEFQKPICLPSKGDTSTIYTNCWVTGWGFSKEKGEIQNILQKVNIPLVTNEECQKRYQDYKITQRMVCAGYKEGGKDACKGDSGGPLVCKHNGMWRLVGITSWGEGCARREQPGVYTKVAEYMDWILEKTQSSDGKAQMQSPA
Human plasma kallikrein, sequence (P03952 20-390 partner): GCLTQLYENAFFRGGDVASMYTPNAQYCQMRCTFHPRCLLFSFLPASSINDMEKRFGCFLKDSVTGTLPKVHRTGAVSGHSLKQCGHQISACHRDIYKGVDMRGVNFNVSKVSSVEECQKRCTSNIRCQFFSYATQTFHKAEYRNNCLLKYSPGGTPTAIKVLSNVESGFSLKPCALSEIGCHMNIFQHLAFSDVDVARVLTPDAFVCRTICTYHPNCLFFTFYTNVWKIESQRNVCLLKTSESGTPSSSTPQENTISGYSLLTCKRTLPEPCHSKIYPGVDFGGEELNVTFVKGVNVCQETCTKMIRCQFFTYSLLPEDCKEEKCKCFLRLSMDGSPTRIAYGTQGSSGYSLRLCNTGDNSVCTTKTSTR
Human KLK1, sequence (P06870 25-262): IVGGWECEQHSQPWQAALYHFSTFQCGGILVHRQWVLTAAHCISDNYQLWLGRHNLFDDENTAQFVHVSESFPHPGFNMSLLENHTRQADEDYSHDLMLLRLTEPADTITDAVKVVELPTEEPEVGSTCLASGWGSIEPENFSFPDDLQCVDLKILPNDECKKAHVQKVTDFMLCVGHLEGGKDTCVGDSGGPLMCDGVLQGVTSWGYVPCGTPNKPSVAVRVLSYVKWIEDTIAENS

IC50 (Human KLK1) [µM] | IC50 (Human plasma kallikrein) [µM] | SMILES
> 10 | 0.953 | Cc1cc(C(=O)N[C@H](C)c2ccc(CN)cc2)c(C)n1Cc1csc(-c2ccccc2)n1 [Example 42, 2,5-Dimethyl-1-(2-phenyl-thiazol-4-ylmethyl)-1H-pyrrole-3-carboxylic acid [(R)-1-(4-aminomethyl-phenyl)-ethyl]-amide]
> 10 | 0.355 | Cc1cc(C(=O)NCc2ccc(CN)nc2)c(C)n1Cc1csc(-c2cccc(F)c2)n1 [Example 44, 1-[2-(3-Fluoro-phenyl)-thiazol-4-ylmethyl]-2,5-dimethyl-1H-pyrrole-3-carboxylic acid (6-aminomethyl-pyridin-3-ylmethyl)-amide]
4.89 | 1.16 | Cc1cc(CNC(=O)c2cc(C)n(Cc3csc(-c4ccccc4)n3)c2C)ccc1CN [Example 46, 2,5-Dimethyl-1-(2-phenyl-thiazol-4-ylmethyl)-1H-pyrrole-3-carboxylic acid 4-aminomethyl-3-methyl-benzylamide]
> 10 | 0.074 | Cc1cc(C(=O)NCc2ccc(CN)cc2F)c(C)n1Cc1csc(-c2ccccc2)n1 [Example 47, 2,5-Dimethyl-1-(2-phenyl-thiazol-4-ylmethyl)-1H-pyrrole-3-carboxylic acid 4-aminomethyl-2-fluoro-benzylamide]
> 10 | 0.089 | Cc1cc(C(=O)NCc2ccc(CN)cc2Cl)c(C)n1Cc1csc(-c2ccccc2)n1 [Example 49, 2,5-Dimethyl-1-(2-phenyl-thiazol-4-ylmethyl)-1H-pyrrole-3-carboxylic acid 4-aminomethyl-2-chloro-benzylamide]
> 10 | 0.056 | Cc1cc(C(=O)NCc2ccc(CN)cc2C(F)(F)F)c(C)n1Cc1csc(-c2ccccc2)n1 [Example 50, 2,5-Dimethyl-1-(2-phenyl-thiazol-4-ylmethyl)-1H-pyrrole-3-carboxylic acid 4-aminomethyl-2-trifluoromethyl-benzylamide]
> 10 | 0.475 | Cc1cc(C(=O)NC2(c3ccc(CN)cc3)CC2)c(C)n1Cc1csc(-c2ccccc2)n1 [Example 52, 2,5-Dimethyl-1-(2-phenyl-thiazol-4-ylmethyl)-1H-pyrrole-3-carboxylic acid [1-(4-aminomethyl-phenyl)-cyclopropyl]-amide]
5.48 | 3.86 | Cc1cc(C(=O)NCc2ccc(CN)cc2Cl)c(C)n1Cc1ccccc1 [Example 56, 1-Benzyl-2,5-dimethyl-1H-pyrrole-3-carboxylic acid 4-aminomethyl-2-chloro-benzylamide]
> 10 | 7.18 | Cc1cc(C(=O)NCc2ccc(CN)cc2)c(-c2ccccc2)n1Cc1ccccc1 [Example 57, 1-Benzyl-5-methyl-2-phenyl-1H-pyrrole-3-carboxylic acid 4-aminomethyl-benzylamide]
> 10 | 4.92 | CCOc1cccc(Cn2c(C)cc(C(=O)NCc3ccc(CN)cc3)c2C)c1 [Example 58, 1-(3-Ethoxy-benzyl)-2,5-dimethyl-1H-pyrrole-3-carboxylic acid 4-aminomethyl-benzylamide]
> 10 | 2.74 | CCOc1ccc(Cn2c(C)cc(C(=O)NCc3ccc(CN)cc3)c2C)cc1 [Example 59, 1-(4-Ethoxy-benzyl)-2,5-dimethyl-1H-pyrrole-3-carboxylic acid 4-aminomethyl-benzylamide]
> 10 | 3.12 | Cc1cc(C(=O)NCc2ccc(CN)cc2)c(C)n1Cc1ccc(OCc2ccccc2)cc1 [Example 60, 1-(4-Benzyloxy-benzyl)-2,5-dimethyl-1H-pyrrole-3-carboxylic acid 4-aminomethyl-benzylamide]
> 10 | 2.99 | COc1ccc(Cn2c(C)cc(C(=O)NCc3ccc(CN)cc3)c2C)cc1 [Example 61, 1-(4-Methoxy-benzyl)-2,5-dimethyl-1H-pyrrole-3-carboxylic acid 4-aminomethyl-benzylamide]
> 10 | 6.03 | Cc1cc(C(=O)NCc2ccc(CN)cc2)c(C)n1Cc1cccc(C(N)=O)c1 [Example 62, 1-(3-Carbamoyl-benzyl)-2,5-dimethyl-1H-pyrrole-3-carboxylic acid 4-aminomethyl-benzylamide]
> 10 | 7.34 | Cc1cc(C(=O)NCc2ccc(CN)cc2)c(C)n1Cc1ccc(C(N)=O)cc1 [Example 63, 1-(4-Carbamoyl-benzyl)-2,5-dimethyl-1H-pyrrole-3-carboxylic acid 4-aminomethyl-benzylamide]
> 10 | 6.25 | Cc1cc(C(=O)NCc2ccc(CN)cc2)c(C)n1Cc1cccc(C#N)c1 [Example 64, 1-(3-Cyano-benzyl)-2,5-dimethyl-1H-pyrrole-3-carboxylic acid 4-aminomethyl-benzylamide]
> 10 | 4.56 | Cc1cc(C(=O)NCc2ccc(CN)cc2)c(C)n1Cc1ccc(C#N)cc1 [Example 65, 1-(4-Cyano-benzyl)-2,5-dimethyl-1H-pyrrole-3-carboxylic acid 4-aminomethyl-benzylamide]
4.23 | 5.38 | Cc1cc(C(=O)NCc2ccc(CN)cc2)c(C)n1Cc1cccc(CN)c1 [Example 66, 1-(3-Aminomethyl-benzyl)-2,5-dimethyl-1H-pyrrole-3-carboxylic acid 4-aminomethyl-benzylamide]
6.97 | 3.5 | Cc1cc(C(=O)NCc2ccc(CN)cc2)c(C)n1Cc1ccc(CN)cc1 [Example 67, 1-(4-Aminomethyl-benzyl)-2,5-dimethyl-1H-pyrrole-3-carboxylic acid 4-aminomethyl-benzylamide]
> 10 | 2.09 | CC(=O)NCc1ccc(Cn2c(C)cc(C(=O)NCc3ccc(CN)cc3)c2C)cc1 [Example 68, 1-[4-(Acetylamino-methyl)-benzyl]-2,5-dimethyl-1H-pyrrole-3-carboxylic acid 4-aminomethyl-benzylamide]
> 10 | 0.702 | Cc1cc(C(=O)NCc2ccc(CN)cc2)c(C)n1Cc1cccc(-c2cccnc2)c1 [Example 71, 2,5-Dimethyl-1-(3-pyridin-3-yl-benzyl)-1H-pyrrole-3-carboxylic acid 4-aminomethyl-benzylamide]
> 10 | 3.02 | Cc1cc(C(=O)NCc2ccc(CN)cc2)c(C)n1Cc1cccc(-c2ccncc2)c1 [Example 72, 2,5-Dimethyl-1-(3-pyridin-4-yl-benzyl)-1H-pyrrole-3-carboxylic acid 4-aminomethyl-benzylamide]
> 10 | 7.58 | Cc1cc(C(=O)NCc2ccc(CN)cc2)c(C)n1Cc1cccc(N2CCOCC2)c1 [Example 73, 2,5-Dimethyl-1-(3-morpholin-4-yl-benzyl)-1H-pyrrole-3-carboxylic acid 4-aminomethyl-benzylamide]
> 10 | 4.5 | Cc1cc(C(=O)NCc2ccc(CN)cc2)n(C)c1Cc1ccccc1 [Example 75, 5-Benzyl-1,4-dimethyl-1H-pyrrole-2-carboxylic acid 4-aminomethyl-benzylamide]
> 10 | 8.77 | Cc1cc(C(=O)NCc2ccc(CN)cc2)[nH]c1Cc1ccccc1 [Example 76, 5-Benzyl-4-methyl-1H-pyrrole-2-carboxylic acid 4-aminomethyl-benzylamide]

SMILES | IC50 (Human KLK1) [µM] | IC50 (Human plasma kallikrein) [µM]
Cc1cc(C(=O)NCc2ccc([C@@H](C)N)cc2)c(C)n1Cc1csc(-c2ccccc2)n1 [Example 48, 2,5-Dimethyl-1-(2-phenyl-thiazol-4-ylmethyl)-1H-pyrrole-3-carboxylic acid 4-((R)-1-amino-ethyl)-benzylamide] | > 10 | 0.624
Cc1cc(C(=O)NCc2ccc([C@H](C)N)cc2)c(C)n1Cc1csc(-c2ccccc2)n1 [Example 51, 2,5-Dimethyl-1-(2-phenyl-thiazol-4-ylmethyl)-1H-pyrrole-3-carboxylic acid-4-((S)-1-amino-ethyl)-benzylamide] | > 10 | 0.341
COc1cc(CNC(=O)c2cc(C)n(Cc3csc(-c4ccccc4)n3)c2C)ccc1CN [Example 53, 2,5-Dimethyl-1-(2-phenyl-thiazol-4-ylmethyl)-1H-pyrrole-3-carboxylic acid 4-aminomethyl-3-methoxy-benzylamide] | > 10 | 0.677
COc1cc(CN)ccc1CNC(=O)c1cc(C)n(Cc2csc(-c3ccccc3)n2)c1C [Example 54, 2,5-Dimethyl-1-(2-phenyl-thiazol-4-ylmethyl)-1H-pyrrole-3-carboxylic acid 4-aminomethyl-2-methoxy-benzylamide] | > 10 | 0.03
Cc1cc(C(=O)NCc2ccc(CN)cc2)c(C)n1Cc1cccc(-c2ccccc2)c1 [Example 69, 1-Biphenyl-3-ylmethyl-2,5-dimethyl-1H-pyrrole-3-carboxylic acid 4-aminomethyl-benzylamide] | > 10 | 0.689
Cc1cc(C(=O)NCc2ccc(CN)cc2)c(C)n1Cc1ccc(-c2ccccc2)cc1 [Example 70, 1-Biphenyl-4-ylmethyl-2,5-dimethyl-1H-pyrrole-3-carboxylic acid 4-aminomethyl-benzylamide] | > 10 | 4.59
Cc1cc(C(=O)NCc2ccc(CN)cc2)c(C)n1Cc1cccc(N2CCCCC2)c1 [Example 74, 2,5-Dimethyl-1-(3-piperidin-1-yl-benzyl)-1H-pyrrole-3-carboxylic acid 4-aminomethyl-benzylamide] | > 10 | 1.58
